Columns and labels:
[1] = physchem; assay type: physicochemical; conditions: for Remaining ratio: 0 min, 70 uM; for remaining at 0.25 h, 70 µM / remaining at 0.5 h, 70 µM / remaining at 1 h, 70 µM / remaining at 21 h, 70 µM: water
Method: (c) 2-O-α-D-Glucosyl-L-ascorbic acid was compared respectively to the 6-O-α-D-glucosyl-L-ascorbic acid disclosed in Japanese Patent Publication No. 38,158/73, and L-ascorbic acid for their stability in aqueous solution. More particularly, each sample was adjusted to a concentration of 70 micromoles and to pH 7.0 or 2.0, placed in a cuvette, and measured for its absorbance at either 260 nm and pH 7.0 or at 245 nm and pH 2.0 while keeping the solution at 20° C. The remaining ratio (%) was calculated with the absorbance.

[2] = Solubility in solvents; assay type: physicochemical
[3] = Coloring reaction: direct reducing activity on 2,6-dichlorophenolindophenol
[4] = system: α-glucosidase; test: Hydrolysis by α-glucosidase; assay type: biochemical; conditions: forms L-ascorbic acid and D-glucose, molar ratio 1:1
Method: (§1) (a) Hydrolyzable by α-glucosidase or by treatment with 1N hydrochloric acid at 100° C. for 5 minutes to form L-ascorbic acid and D-glucose at a molar ratio of 1:1.

[5] = system: β-glucosidase; test: Hydrolysis by β-glucosidase; assay type: biochemical
Excerpt: (b) Unhydrolyzable by β-glucosidase.

[6] = Hydrolysis by 1N hydrochloric acid at 100° C.; assay type: physicochemical; conditions: 5 minutes
Method: as §1

[7] = system: cytochrome C; test: Reducing activity on cytochrome C; assay type: biochemical; conditions: for Reducing activity on cytochrome C: intact sample, 10 microliters of 10 mM, pH 7.8
[8] = system: human fibroblast cell; test: Collagenic activity in human fibroblast cell; assay type: cell-based; conditions: 0.25 mM, 24 hours
Method: (b) Collagenic activity 2-O-α-D-Glucosyl-L-ascorbic acid, 6-O-α-D-glucosyl-L-ascorbic acid and L-ascorbic acid were tested for their collagenic activity. A human fibroblast cell, cell density of 7×10^4 cells/plate, was cultured in Eagle's minimal essential medium supplemented with 10% FCS for 1 week, added with 4 μCi/ml ^3 H-proline, 20 μg/ml of β-aminopropionitrile and 0.25 mM of either sample, and cultured for an additional 24 hours. The resultant was then added with 10 w/v % trichloroacetic acid to recover the collagenous element in the culture, followed by lyophilization. The resultant specimen was dissolved, and the solution was adjusted to an appropriate pH, treated with a collagenase (Type III) at 37° C. for 90 minutes, and centrifuged. Collagenic activity was estimated by determining the radio activity in the supernatant.

[9] = system: dd mice; test: Acute toxicity, oral; assay type: in vivo, mouse
Excerpt: A high-purity α-D-glucosyl-L-ascorbic acid specimen, prepared by the method in Experiment 2(2), was orally administered to 7 week-old dd mice for acute toxicity test. As the result, no mouse died when administered with up to […] of the specimen, and higher dose was difficult.

O=C1O[C@H]([C@@H](O)CO)C(O)=C1O[C@H]1O[C@H](CO)[C@@H](O)[C@H](O)[C@H]1O [2-O-α-D-glucosyl-L-ascorbic acid]
Stability in aqueous solution [1]: extremely stable in aqueous solution
Remaining ratio ([1]; pH 2): 100%
Remaining ratio ([1]; pH 7): 100%
remaining at 0.25 h, 70 µM ([1]; pH 2): 100%
remaining at 0.5 h, 70 µM ([1]; pH 2): 100%
remaining at 1 h, 70 µM ([1]; pH 2): 100%
remaining at 21 h, 70 µM ([1]; pH 2): 100%
remaining at 0.25 h, 70 µM ([1]; pH 7): 100%
remaining at 0.5 h, 70 µM ([1]; pH 7): 100%
remaining at 1 h, 70 µM ([1]; pH 7): 100%
remaining at 21 h, 70 µM ([1]; pH 7): 100%
Solubility ([2]; 0.1N acetic acid): Readily soluble
Solubility ([2]; 0.1N sodium hydroxide): Readily soluble
Solubility ([2]; benzene): insoluble
Solubility ([2]; chloroform): insoluble
Solubility ([2]; ethanol): soluble
Solubility ([2]; ether): insoluble
Solubility ([2]; methanol): soluble
Solubility ([2]; water): Readily soluble
Direct reducing activity (2,6-dichlorophenolindophenol) [3]: no direct reducing activity, and not reducing and decoloring 2,6-dichlorophenolindophenol
Hydrolysis by α-glucosidase [4]: Hydrolyzable
Hydrolysis by β-glucosidase [5]: Unhydrolyzable
Hydrolysis by acid [6]: Hydrolyzable
Reducing activity on cytochrome C after hydrolysis ([7]; hydrolyzed by α-glucosidase specimen): exhibited a reducing activity
Reducing activity on cytochrome C [7]: no reducing activity
Collagenic activity [8]: the same collagenic activity as that of L-ascorbic acid
Highest dose administered without death ([9]; 7 week-old dd mice, higher dose was difficult): ≥ 5 g
Mortality ([9]; 7 week-old dd mice, up to 5 g): no mouse died
Toxicity ([9]; dd mice): extremely low in toxicity

O=C1O[C@H]([C@@H](O)CO)C(O)=C1O [L-ascorbic acid]
Remaining ratio ([1]; pH 2): 100%
Remaining ratio ([1]; pH 7): 100%
remaining at 0.25 h, 70 µM ([1]; pH 2): 99%
remaining at 0.5 h, 70 µM ([1]; pH 2): 97%
remaining at 1 h, 70 µM ([1]; pH 2): 87%
remaining at 21 h, 70 µM ([1]; pH 2): 10%
remaining at 0.25 h, 70 µM ([1]; pH 7): 47%
remaining at 0.5 h, 70 µM ([1]; pH 7): 20%
remaining at 1 h, 70 µM ([1]; pH 7): 8%
remaining at 21 h, 70 µM ([1]; pH 7): 2%
Reducing activity on cytochrome C [7]: unlike 6-O-α-D-glucosyl-L-ascorbic acid and L-ascorbic acid, 2-O-α-D-glucosyl-L-ascorbic acid exhibited no reducing activity

O=C1O[C@H]([C@@H](O)CO[C@H]2O[C@H](CO)[C@@H](O)[C@H](O)[C@H]2O)C(O)=C1O [6-O-α-D-glucosyl-L-ascorbic acid]
Remaining ratio ([1]; pH 2): 100%
Remaining ratio ([1]; pH 7): 100%
remaining at 0.25 h, 70 µM ([1]; pH 2): 99%
remaining at 0.5 h, 70 µM ([1]; pH 2): 98%
remaining at 1 h, 70 µM ([1]; pH 2): 91%
remaining at 21 h, 70 µM ([1]; pH 2): 55%
remaining at 0.25 h, 70 µM ([1]; pH 7): 58%
remaining at 0.5 h, 70 µM ([1]; pH 7): 36%
remaining at 1 h, 70 µM ([1]; pH 7): 17%
remaining at 21 h, 70 µM ([1]; pH 7): 8%
Reducing activity on cytochrome C [7]: unlike 6-O-α-D-glucosyl-L-ascorbic acid and L-ascorbic acid, 2-O-α-D-glucosyl-L-ascorbic acid exhibited no reducing activity
Collagenic activity [8]: slightly inferior in collagenic activity to that of 2-O-α-D-glucosyl-L-ascorbic acid

From US5767149A, “α-glycosyl-L-ascorbic acid, and it's preparation and uses” (priority 1989, dated 1998)
